Article PMC6039432, “A small-molecule inhibitor of SOD1-Derlin-1 interaction ameliorates pathology in an ALS mouse model” (Nature Communications, 2018)

How the values were obtained:
[1] = target: T1, SOD1 (GST-SOD1 / Flag-SOD1; WT or G93A) (Homo sapiens, UniProt P00441, G94A); experiment: fluorescence polarization (intrinsic fluorescence of compound); assay type: binding
T1 construct: full length; GST fusion from pGEX-6P-1 in E. coli BL21, eluted with glutathione (tag apparently kept), loaded with CuSO4 and ZnCl2 (described for activity assay); Flag-tagged in HEK293A for pull-down

[2] = target: T2, SOD1-Derlin-1 complex (Flag-SOD1 / Derlin-1-HA) (Homo sapiens, UniProt P00441, G94A); experiment: in vitro co-immunoprecipitation of purified complex, immunoblot; assay type: biochemical
T2 construct: Flag-SOD1 G93A and Derlin-1-HA co-expressed in HEK293A; complex purified on anti-Flag beads for the in vitro assay, or assayed in cells; all tags kept; with Derlin-1
T2 sequence (P00441 2-154 G94A): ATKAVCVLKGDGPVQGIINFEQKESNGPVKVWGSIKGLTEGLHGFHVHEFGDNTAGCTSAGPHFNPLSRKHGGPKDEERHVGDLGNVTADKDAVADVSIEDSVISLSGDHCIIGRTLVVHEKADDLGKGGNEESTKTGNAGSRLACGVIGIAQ
T2 sequence (Q9BUN8 2-251 partner): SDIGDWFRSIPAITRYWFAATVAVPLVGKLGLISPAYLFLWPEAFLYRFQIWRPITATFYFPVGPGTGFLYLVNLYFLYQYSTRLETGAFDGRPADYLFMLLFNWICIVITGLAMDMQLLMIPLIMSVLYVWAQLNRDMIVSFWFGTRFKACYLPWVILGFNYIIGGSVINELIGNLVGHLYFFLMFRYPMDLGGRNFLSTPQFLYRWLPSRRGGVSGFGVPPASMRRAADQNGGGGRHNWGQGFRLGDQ

T1 sequence (P00441 2-154 G94A): as the sequence (P00441 2-154 G94A) above

Row | Kd [1] | IC50 [2] | SMILES
1 | 81.1 µM | 7.11 µM | Nc1c(C(=O)Nc2ccc(Br)cc2Br)sc2nc(-c3cccnc3)ccc12 [#56-20]
2 |  | 6.2 µM | Nc1c(C(=O)Nc2ccc(Cl)cc2Cl)sc2nc(-c3cccnc3)ccc12 [#56-26]
3 |  | 23.3 µM | Nc1c(C(=O)Nc2ccc3c(c2)OCO3)sc2nc(-c3cccnc3)ccc12 [#56]
